Data published in publication PMC10387993, “New pyrimidine-N-β-D-glucosides: synthesis, biological evaluation, and molecular docking investigations” (Turkish Journal of Chemistry, 2023).
In brackets after ≈: the same amount, converted by molar mass.

What was measured:
Format in all cases: cell-based
HT29 = experiment: cells; conditions: Homo sapiens; for LC50 (concentration giving 50% net cell loss relative to time zero): HT-29, read-out: LC50; for GI50 / IC50 / IC (total growth inhibition): HT-29, HT29, MTT; for IC50: read-out: IC50; for IC (total growth inhibition): read-out: TGI
In short: (§1)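 Seed ~1 × 10^4 cells/well; final 200 μL. Add MTT in phenol-red-free RPMI 1640, 4 h. Solubilise formazan in DMSO + Sorenson's buffer, 30 min RT. Read 560/690 nm. ≥3 repeats.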

MCF7 = experiment: cells; conditions: Homo sapiens; for LC50 (concentration causing 50% net cell loss relative to time zero): MCF7, read-out: LC50; for GI50 / IC50 / IC (total growth inhibition): MCF7, MTT; for IC50: read-out: IC50; for IC (total growth inhibition): read-out: TGI
In short: as §1

HeLa = experiment: cells; conditions: Homo sapiens; for GI50 / IC50 / IC (total growth inhibition): MTT; for IC50: read-out: IC50; for IC (total growth inhibition): read-out: TGI; for LC50 (concentration causing 50% net cell loss): read-out: LC50
In short: as §1

A549 = experiment: cells; conditions: Homo sapiens; for LC50 (concentration causing 50% net cell loss): A549, read-out: LC50; for GI50 / IC50 / IC (total growth inhibition): A549, MTT; for IC50: read-out: IC50; for IC (total growth inhibition): read-out: TGI
In short: as §1

[1] = LDH cytotoxic activity assay, C6; conditions: rat, C6 glioma cells; for cytotoxicity at 24 h, 25 μg/mL: C6, 25 μg/mL; for cytotoxicity at 24 h, 50 μg/mL: C6, 50 μg/mL; for cytotoxicity at 24 h, 75 μg/mL: C6, 75 μg/mL; for cytotoxicity at 24 h, 100 μg/mL: C6, 100 μg/mL
Experimental: The cell lines were cultured in a cell medium (Dulbecco’s modified eagle’s or RPMI 1640) enriched with 10% (v/v) fetal bovine serum and 2% (v/v) Penicillin-Streptomycin (10,000 U/mL). First, old medium was removed out of the flask when the cells reached approximately 80% confluence. Next, cells were taken from the flasks surface using trypsin-EDTA solution and then subjected to centrifugation. Following, the cell pellet was suspended with fresh media and was inoculated into wells.
Approximately 5 × 10^3 cells in 100 μL were placed into 96-well plates as triplicates and treated with 25, 50, 75, and 100 μg/mL concentrations of test compounds at 37 °C with 5% CO2 for 24 h. LDH activity was obtained by determining absorbance at 492–630 nm using a microplate reader.

| SMILES | GI50 (HT29) [µg/mL] | IC50 (HT29) [µg/mL] | GI50 (MCF7) [µg/mL] | IC50 (MCF7) [µg/mL] | GI50 (HeLa) [µg/mL] | IC50 (HeLa) [µg/mL] | GI50 (A549) [µg/mL] | IC50 (A549) [µg/mL] | LC50 (concentration giving 50% net cell loss relative to time zero) (HT29) [µg/mL] | IC (total growth inhibition) (HT29) [µg/mL] | LC50 (concentration causing 50% net cell loss relative to time zero) (MCF7) [µg/mL] | IC (total growth inhibition) (MCF7) [µg/mL] | IC (total growth inhibition) (HeLa) [µg/mL] | LC50 (concentration causing 50% net cell loss) (HeLa) [µg/mL] | LC50 (concentration causing 50% net cell loss) (A549) [µg/mL] | IC (total growth inhibition) (A549) [µg/mL] | cytotoxicity at 24 h, 25 μg/mL [1] [%] | cytotoxicity at 24 h, 50 μg/mL [1] [%] | cytotoxicity at 24 h, 75 μg/mL [1] [%] | cytotoxicity at 24 h, 100 μg/mL [1] [%] |
| --- | --- | --- | --- | --- | --- | --- | --- | --- | --- | --- | --- | --- | --- | --- | --- | --- | --- | --- | --- | --- |
| CC(=O)OC[C@H]1O[C@@H](Nc2nc(-c3ccncc3)cc(-c3ccccc3C)n2)[C@H](OC(C)=O)[C@@H](OC(C)=O)[C@@H]1OC(C)=O [Compound 12, 2,3,4,6-tetra-O-acetyl-N-[4-(2-methylphenyl)-6-pyridin-4-ylpyrimidin-2-yl]-β-D-glucopyranosylamine] | 2.23 (≈ 3.76 µM) | 298 (≈ 503 µM) | 1.22 (≈ 2.06 µM) | > 500 | > 500 | > 500 | > 500 | > 500 | > 500 | > 500 | > 500 | > 500 | > 500 | > 500 | > 500 | > 500 | 21.1 | 46.7 | 75.2 | 87.4 |
| Cc1ccccc1-c1cc(-c2cccnc2)nc(N[C@@H]2O[C@H](CO)[C@@H](O)[C@H](O)[C@H]2O)n1 [Compound 2, N-[4-(2-methylphenyl)-6-pyridin-3-ylpyrimidin-2-yl]-β-D-glucopyranosylamine] | 2.46 (≈ 5.8 µM) | 453 (≈ 1070 µM) | 1.69 (≈ 3.98 µM) | > 500 | > 500 | > 500 | 11.6 (≈ 27.3 µM) | > 500 | > 500 | > 500 | > 500 | > 500 | > 500 | > 500 | > 500 | > 500 | 30.8 | 49.8 | 72.7 | 99.8 |
| CC(=O)OC[C@H]1O[C@@H](Nc2nc(-c3ccncc3)cc(-c3cccc(C)c3)n2)[C@H](OC(C)=O)[C@@H](OC(C)=O)[C@@H]1OC(C)=O [Compound 15, 2,3,4,6-tetra-O-acetyl-N-[4-(3-methylphenyl)-6-pyridin-4-ylpyrimidin-2-yl]-β-D-glucopyranosylamine] | 5 (≈ 8.44 µM) | > 500 | 4.1 (≈ 6.92 µM) | > 500 | > 500 | > 500 | > 500 | > 500 | > 500 | > 500 | > 500 | > 500 | > 500 | > 500 | > 500 | > 500 | 20.4 | 55 | 77.1 | 83.3 |
| CC(=O)OC[C@H]1O[C@@H](Nc2nc(-c3cccnc3)cc(-c3ccccc3C)n2)[C@H](OC(C)=O)[C@@H](OC(C)=O)[C@@H]1OC(C)=O [Compound 11, 2,3,4,6-tetra-O-acetyl-N-[4-(2-methylphenyl)-6-pyridin-3-ylpyrimidin-2-yl]-β-D-glucopyranosylamine] | 2.75 (≈ 4.64 µM) | > 500 | 4.46 (≈ 7.53 µM) | > 500 | > 500 | > 500 | > 500 | > 500 | > 500 | > 500 | > 500 | > 500 | > 500 | > 500 | > 500 | > 500 | 26.4 | 42.2 | 77 | 84.8 |
| CC(=O)OC[C@H]1O[C@@H](Nc2nc(-c3ccc(C)cc3)cc(-c3ccccn3)n2)[C@H](OC(C)=O)[C@@H](OC(C)=O)[C@@H]1OC(C)=O [Compound 16, 2,3,4,6-tetra-O-acetyl-N-[4-(4-methylphenyl)-6-pyridin-2-ylpyrimidin-2-yl]-β-D-glucopyranosylamine] | 1.47 (≈ 2.48 µM) | 3.26 (≈ 5.5 µM) | 1.41 (≈ 2.38 µM) | 4.12 (≈ 6.95 µM) | 1.49 (≈ 2.51 µM) | 9.13 (≈ 15.4 µM) | 23.8 (≈ 40.1 µM) | > 500 | 122 (≈ 205 µM) | 3.88 | 495 (≈ 835 µM) | 4.29 | 3.28 | 34.1 (≈ 57.6 µM) | > 500 | > 500 | 17.1 | 28.9 | 63.2 | 84.7 |

Further lines, with some results ahead:

| GI50 (HT29) [µg/mL] | IC50 (HT29) [µg/mL] | GI50 (MCF7) [µg/mL] | IC50 (MCF7) [µg/mL] | GI50 (HeLa) [µg/mL] | IC50 (HeLa) [µg/mL] | GI50 (A549) [µg/mL] | IC50 (A549) [µg/mL] | SMILES | LC50 (concentration giving 50% net cell loss relative to time zero) (HT29) [µg/mL] | IC (total growth inhibition) (HT29) [µg/mL] | LC50 (concentration causing 50% net cell loss relative to time zero) (MCF7) [µg/mL] | IC (total growth inhibition) (MCF7) [µg/mL] | IC (total growth inhibition) (HeLa) [µg/mL] | LC50 (concentration causing 50% net cell loss) (HeLa) [µg/mL] | LC50 (concentration causing 50% net cell loss) (A549) [µg/mL] | IC (total growth inhibition) (A549) [µg/mL] | cytotoxicity at 24 h, 25 μg/mL [1] [%] | cytotoxicity at 24 h, 50 μg/mL [1] [%] | cytotoxicity at 24 h, 75 μg/mL [1] [%] | cytotoxicity at 24 h, 100 μg/mL [1] [%] |
| --- | --- | --- | --- | --- | --- | --- | --- | --- | --- | --- | --- | --- | --- | --- | --- | --- | --- | --- | --- | --- |
| 7.77 (≈ 13.1 µM) | > 500 | 1.79 (≈ 3.02 µM) | > 500 | 1.03 (≈ 1.74 µM) | 2.29 (≈ 3.86 µM) | 15.5 (≈ 26.2 µM) | > 500 | CC(=O)OC[C@H]1O[C@@H](Nc2nc(-c3ccncc3)cc(-c3ccc(C)cc3)n2)[C@H](OC(C)=O)[C@@H](OC(C)=O)[C@@H]1OC(C)=O [Compound 18, 2,3,4,6-tetra-O-acetyl-N-[4-(4-methylphenyl)-6-pyridin-4-ylpyrimidin-2-yl]-β-D-glucopyranosylamine] | > 500 | > 500 | > 500 | > 500 | 1.29 | 7.4 (≈ 12.5 µM) | > 500 | > 500 | 27.2 | 44.1 | 75.2 | 86.5 |
| 3.09 (≈ 5.21 µM) | > 500 | 2.19 (≈ 3.7 µM) | > 500 | > 500 | > 500 | 7.85 (≈ 13.2 µM) | > 500 | CC(=O)OC[C@H]1O[C@@H](Nc2nc(-c3ccc(C)cc3)cc(-c3cccnc3)n2)[C@H](OC(C)=O)[C@@H](OC(C)=O)[C@@H]1OC(C)=O [Compound 17, 2,3,4,6-tetra-O-acetyl-N-[4-(4-methylphenyl)-6-pyridin-3-ylpyrimidin-2-yl]-β-D-glucopyranosylamine] | > 500 | > 500 | > 500 | > 500 | > 500 | > 500 | > 500 | > 500 | 32 | 44.6 | 67.6 | 81.8 |
